Laboratory results from patent EP4603105A1, “PHARMACEUTICAL COMPOSITION CONTAINING CYCLIC COMPOUND HAVING SELECTIVE KRAS INHIBITORY EFFECT AGAINST HRAS AND NRAS” (CHUGAI SEIYAKU KABUSHIKI KAISHA, priority 2022, dated 2024).
*1 amine or outer side, *2 acyl side, *3 side chain or, on linkers, in order; H or OH if unused. Where a SMILES comes first, the peptide text is derived from it. Bridges are numbered along the chain shown (N, C = ends). [ ]: non-standard residue; d: D form. The star is where a group is joined. hPhe(3-Cl-4-CF3) = N[C@@H](CCc1ccc(C(F)(F)F)c(Cl)c1)C(=O)O; NPrPhe(4-CF3) = CCCN[C@@H](Cc1ccc(C(F)(F)F)cc1)C(=O)O; X44 = Cc1ccc(C[C@@H](C(=O)[*:2])N(CC2CCC2)[*:1])cc1; Pro(4-spirocPr) = O=C(O)[C@@H]1CC2(CC2)CN1; NMeGly(cPent) = CN[C@H](C(=O)O)C1CCCC1; Hyp = O=C(O)[C@@H]1C[C@@H](O)CN1; NMeD = CN[C@@H](CC(=O)O)C(=O)O; NMeL = CN[C@@H](CC(C)C)C(=O)O; Morpholide = C1CN(*)CCO1; NMeA = CN[C@@H](C)C(=O)O; Ac5c = NC1(C(=O)O)CCCC1; Aze = O=C(O)[C@@H]1CCN1; Ac4c = NC1(C(=O)O)CCC1; NEtG = CCNCC(=O)O; Sar = CNCC(=O)O

What was measured:
[1] = target: HRAS wild-type protein (Homo sapiens, UniProt P01112); test: Binding to HRAS by surface plasmon resonance (SPR), KD and KD ratio to KRAS
In short: (§1)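 GDP-loaded biotinylated Avi-tag RAS proteins (E. coli-expressed) captured on a Biotin CAPture chip at ~100–300 RU; single-cycle kinetics at 30°C, 100 µL/min, 75 s injections of rising compound concentrations. HBS pH 7.4 running buffer with 1 mM DTT, 10 mM MgCl2, 10 µM GDP, 4% DMSO. KD from 1:1 binding fit.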

[2] = tested on: human lung cancer strain NCI-H441; type: cell-based
In short: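 Readout: […] after the ATP-based reagent. Compound: serial dilutions in dimethyl sulfoxide.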

[3] = target: GDP-bound NRAS wild-type protein (Homo sapiens, UniProt P01111); test: Binding to NRAS by surface plasmon resonance (SPR), KD and KD ratio to KRAS
In short: as §1

[4] = ratio of KD for HRAS wild-type protein to KD for KRAS
[5] = ratio of KD for GDP-bound NRAS wild-type protein to KD for KRAS
[6] = ratio of the KD value with respect to HRAS wild-type protein to the KD value with respect to KRAS
[7] = ratio of the KD value with respect to GDP-bound NRAS wild-type protein to the KD value with respect to KRAS

Sequence of GDP-bound NRAS wild-type protein (P01111 whole entry): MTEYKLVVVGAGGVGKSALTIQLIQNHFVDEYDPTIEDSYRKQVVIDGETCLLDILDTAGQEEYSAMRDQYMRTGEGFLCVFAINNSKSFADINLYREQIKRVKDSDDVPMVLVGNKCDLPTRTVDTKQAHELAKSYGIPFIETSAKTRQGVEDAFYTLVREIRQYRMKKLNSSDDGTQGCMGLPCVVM
Sequence of HRAS wild-type protein (P01112 whole entry): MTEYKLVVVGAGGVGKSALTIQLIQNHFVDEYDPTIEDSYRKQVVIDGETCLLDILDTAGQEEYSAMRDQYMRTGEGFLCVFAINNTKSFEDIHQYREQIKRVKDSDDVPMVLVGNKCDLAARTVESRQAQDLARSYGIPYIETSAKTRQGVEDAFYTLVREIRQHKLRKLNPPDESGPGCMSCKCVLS

Row | SMILES | IC50 [2] [µM] | HRAS /KRAS [1, 4] | NRAS /KRAS [3, 5] | HRAS /KRAS [1, 6] | NRAS /KRAS [3, 7]
1 | CCCN1C(=O)[C@@H]2CCN2C(=O)[C@H](C)N(C)C(=O)[C@H]([C@@H](C)CC)NC(=O)[C@H](CC(C)C)N(C)C(=O)C[C@@H](C(=O)N2CCOCC2)N(C)C(=O)[C@H](C2CCCC2)N(C)C(=O)C2(CCCC2)NC(=O)[C@@H]2CC3(CC3)CN2C(=O)[C@H](CCc2ccc(C(F)(F)F)c(Cl)c2)NC(=O)CN(C)C(=O)[C@@H]1Cc1ccc(C(F)(F)F)cc1 [PP0282] ([NMeL]I[NMeA][Aze][NPrPhe(4-CF3)][Sar][hPhe(3-Cl-4-CF3)][Pro(4-spirocPr)][Ac5c][NMeGly(cPent)][NMeD]-Morpholide; lactam N-11) | 0.0039 | C (A compound having a KD ratio of 0.1 or more and less than 3 is denoted as C) | C (A compound having a KD ratio of 0.1 or more and less than 3 is denoted as C) |  | 
2 | CCCN1C(=O)CN(C)C(=O)CNC(=O)[C@H]([C@@H](C)CC)NC(=O)[C@H](CC(C)C)N(C)C(=O)C[C@@H](C(=O)N(C)C)NC(=O)[C@H](C2CCCC2)N(C)C(=O)C2(CCCC2)NC(=O)[C@@H]2C[C@@H](OCC)CN2C(=O)[C@H](CCc2ccc(C(F)(F)F)c(Cl)c2)NC(=O)CN(C)C(=O)[C@@H]1Cc1ccc(C(F)(F)F)cc1 [PP0365] ([NMeL]IG[Sar][NPrPhe(4-CF3)][Sar][hPhe(3-Cl-4-CF3)][Hyp](Et)[Ac5c][NMeGly(cPent)]D-NMe2; lactam N-11) | 0.0426 | B (a compound having 3 or more and less than 10 is denoted as B) | B (a compound having 3 or more and less than 10 is denoted as B) |  | 
3 | CC[C@H](C)[C@@H]1NC(=O)[C@H](CC(C)C)N(C)C(=O)C[C@@H](C(=O)N2CCOCC2)N(C)C(=O)[C@H](C2CCCC2)N(C)C(=O)C2(CCCC2)NC(=O)[C@@H]2CCCN2C(=O)[C@H](CCc2ccc(C(F)(F)F)c(Cl)c2)NC(=O)CN(C)C(=O)[C@H](Cc2ccc(C)cc2)N(CC2CCC2)C(=O)CN(C)C(=O)CN(C)C1=O [PP0095] ([NMeL]I[Sar][Sar][X44][Sar][hPhe(3-Cl-4-CF3)]P[Ac5c][NMeGly(cPent)][NMeD]-Morpholide; lactam N-11) | 0.0182 | C (A compound having a KD ratio of 0.1 or more and less than 3 is denoted as C) | C (A compound having a KD ratio of 0.1 or more and less than 3 is denoted as C) |  | 
4 | CCCN1C(=O)CN(C)C(=O)CN(CC)C(=O)[C@H]([C@@H](C)CC)NC(=O)[C@H](CC(C)C)N(C)C(=O)C[C@@H](C(=O)N(C)C)N(C)C(=O)[C@H](C2CCCC2)N(C)C(=O)C2(CCC2)NC(=O)[C@@H]2CCCN2C(=O)[C@H](CCc2ccc(C(F)(F)F)c(Cl)c2)NC(=O)CN(C)C(=O)[C@@H]1Cc1ccc(C(F)(F)F)cc1 [PP0424] ([NMeL]I[NEtG][Sar][NPrPhe(4-CF3)][Sar][hPhe(3-Cl-4-CF3)]P[Ac4c][NMeGly(cPent)][NMeD]-NMe2; lactam N-11) | 0.0095 |  |  | C (A compound having a KD ratio of 0.1 or more and less than 3 is denoted as C) | B (a compound having 3 or more and less than 10 is denoted as B)
5 | CCCN1C(=O)CN(C)C(=O)CNC(=O)[C@H]([C@@H](C)CC)NC(=O)[C@H](CC(C)C)N(C)C(=O)C[C@@H](C(=O)N2CCOCC2)N(C)C(=O)[C@H](C2CCCC2)N(C)C(=O)C2(CCCC2)NC(=O)[C@@H]2C[C@@H](OCC)CN2C(=O)[C@H](CCc2ccc(C(F)(F)F)c(Cl)c2)NC(=O)CN(C)C(=O)[C@@H]1Cc1ccc(C(F)(F)F)cc1 [PP0396] ([NMeL]IG[Sar][NPrPhe(4-CF3)][Sar][hPhe(3-Cl-4-CF3)][Hyp](Et)[Ac5c][NMeGly(cPent)][NMeD]-Morpholide; lactam N-11) | 0.0009 |  |  | C (A compound having a KD ratio of 0.1 or more and less than 3 is denoted as C) | B (a compound having 3 or more and less than 10 is denoted as B)
6 | CCCN1C(=O)[C@@H]2CCN2C(=O)CN(C)C(=O)[C@H]([C@@H](C)CC)NC(=O)[C@H](CC(C)C)N(C)C(=O)C[C@@H](C(=O)N2CCOCC2)N(C)C(=O)[C@H](C2CCCC2)N(C)C(=O)C2(CCCC2)NC(=O)[C@@H]2C[C@@H](OCC)CN2C(=O)[C@H](CCc2ccc(C(F)(F)F)c(Cl)c2)NC(=O)CN(C)C(=O)[C@@H]1Cc1ccc(C(F)(F)F)cc1 [PP0410] ([NMeL]I[Sar][Aze][NPrPhe(4-CF3)][Sar][hPhe(3-Cl-4-CF3)][Hyp](Et)[Ac5c][NMeGly(cPent)][NMeD]-Morpholide; lactam N-11) | 0.0014 |  |  | B (a compound having 3 or more and less than 10 is denoted as B) | C (A compound having a KD ratio of 0.1 or more and less than 3 is denoted as C)

Now from value to compound, other results behind:

Row | IC50 [2] [µM] | SMILES | HRAS /KRAS [1, 4] | NRAS /KRAS [3, 5] | HRAS /KRAS [1, 6] | NRAS /KRAS [3, 7]
7 | 0.0124 | CCO[C@@H]1C[C@H]2C(=O)NC3(CCC3)C(=O)N(C)[C@@H](C3CCCC3)C(=O)N(C)[C@H](C(=O)N(C)C)CC(=O)N(C)[C@@H](CC(F)(F)F)C(=O)N[C@@H]([C@@H](C)CC)C(=O)N(C)CC(=O)N(C)[C@H]3C/C=C\CCN(C3=O)[C@@H](Cc3ccc(C(F)(F)F)cc3)C(=O)N(C)CC(=O)N[C@@H](CCc3cc(F)c(C(F)(F)F)c(F)c3)C(=O)N2C1 [PP1124] | B (a compound having 3 or more and less than 10 is denoted as B) | A (a compound having 10 or more and less than 20 is denoted as A) |  | 
8 | 0.126 | CCC(CC)[C@H]1C(=O)N(C)[C@H](C(=O)N(C)C)CC(=O)N(C)[C@@H](COC)C(=O)N[C@@H]([C@@H](C)CC)C(=O)N(C)CC(=O)N(C)[C@H]2C/C=C\CCN(C2=O)[C@@H](Cc2ccc(C(F)(F)F)cc2)C(=O)N(C)CC(=O)N[C@@H](CCc2cc(F)c(C(F)(F)F)c(F)c2)C(=O)N2CC[C@H]2C(=O)NC2(CC(C)(C)C2)C(=O)N1C [PP2918] | A (a compound having 10 or more and less than 20 is denoted as A) | AA (a compound having 20 or more is denoted as AA) |  | 
9 | 0.0226 | CC[C@H](C)[C@@H]1NC(=O)[C@H](CC(C)C)N(C)C(=O)C[C@@H](C(=O)N(C)C)N(C)C(=O)[C@H](C2CCCC2)N(C)C(=O)C2(CCC2)NC(=O)[C@@H]2CC(F)(F)CN2C(=O)[C@H](CCc2cc(F)c(C(F)(F)F)c(F)c2)NC(=O)CN(C)C(=O)[C@H](Cc2ccc(C(F)(F)F)cc2)N2CCCCC[C@@H](C2=O)N(C)C(=O)CN(C)C1=O [PP0466] |  |  | B (a compound having 3 or more and less than 10 is denoted as B) | B (a compound having 3 or more and less than 10 is denoted as B)
10 | 0.104 | CCC(CC)[C@H]1C(=O)N(C)[C@H](C(=O)N(C)C)CC(=O)N(C)[C@@H](COC)C(=O)N[C@@H]([C@@H](C)CC)C(=O)N(C)CC(=O)N(C)[C@H]2C/C=C\CCN(C2=O)[C@@H](Cc2ccc(C(F)(F)F)cc2)C(=O)N(C)CC(=O)N[C@@H](CCc2ccc(Cl)c(Cl)c2)C(=O)N2CCOC[C@H]2C(=O)NC2(CC(C)(C)C2)C(=O)N1C [PP2941] | A (a compound having 10 or more and less than 20 is denoted as A) | AA (a compound having 20 or more is denoted as AA) |  | 
11 | 0.0177 | C#CC[C@H]1C(=O)N[C@@H]([C@@H](C)CC)C(=O)N(C)CC(=O)N(C)[C@H]2C/C=C\CCN(C2=O)[C@@H](Cc2ccc(C(F)(F)F)cc2)C(=O)N(C)CC(=O)N[C@@H](CCc2ccc(Cl)c(Cl)c2)C(=O)N2C[C@H](OCC)C[C@H]2C(=O)NC2(CC(C)(C)C2)C(=O)N(C)[C@@H](C2CCCC2)C(=O)N(C)[C@H](C(=O)N(C)CC)CC(=O)N1C [PP2843] | A (a compound having 10 or more and less than 20 is denoted as A) | A (a compound having 10 or more and less than 20 is denoted as A) |  | 
12 | 0.0424 | CCO[C@@H]1C[C@H]2C(=O)NC3(CCC3)C(=O)N(C)[C@@H](C3CCCC3)C(=O)N(C)[C@H](C(=O)N(C)C)CC(=O)N(C)[C@@H](Cc3ccc(F)cc3)C(=O)N[C@@H]([C@@H](C)CC)C(=O)N(C)CC(=O)N(C)[C@H]3CCCCCN(C3=O)[C@@H](Cc3ccc(C(F)(F)F)cc3)C(=O)N(C)CC(=O)N[C@@H](CCc3cc(F)c(C(F)(F)F)c(F)c3)C(=O)N2C1 [PP0936] | B (a compound having 3 or more and less than 10 is denoted as B) | B (a compound having 3 or more and less than 10 is denoted as B) |  | 
13 | 0.001 | CCC[C@H]1C(=O)N[C@@H]([C@@H](C)CC)C(=O)N(C)CC(=O)N(C)[C@H]2CCCCN(C2=O)[C@@H](Cc2ccc(C(F)(F)F)cc2)C(=O)N(C)CC(=O)N[C@@H](CCc2cc(F)c(C(F)(F)F)c(F)c2)C(=O)N2C[C@H](OCC)C[C@H]2C(=O)NC2(CCC2)C(=O)N(C)[C@@H](C2CCCC2)C(=O)N(C)[C@H](C(=O)N2CCOCC2)CC(=O)N1C [PP0709] |  |  | B (a compound having 3 or more and less than 10 is denoted as B) | C (A compound having a KD ratio of 0.1 or more and less than 3 is denoted as C)
14 | 0.111 | CCC[C@H]1C(=O)N[C@@H]([C@@H](C)CC)C(=O)N(C)CC(=O)N(C)[C@H]2C/C=C\CCN(C2=O)[C@@H](Cc2ccc(C(F)(F)F)cc2)C(=O)N(C)CC(=O)N[C@@H](CCc2ccc(CC)c(Cl)c2)C(=O)N2C[C@H](OCC)C[C@H]2C(=O)NC2(CC(C)(C)C2)C(=O)N(C)[C@@H](C(CC)CC)C(=O)N(C)[C@H](C(=O)N(C)C)CC(=O)N1C [PP2777] | A (a compound having 10 or more and less than 20 is denoted as A) | AA (a compound having 20 or more is denoted as AA) |  | 
